Reference: paper PMC11190223, “Identification of sulfakinin receptor regulating feeding behavior and hemolymph trehalose homeostasis in the silkworm, Bombyx mori” (Scientific Reports, 2024)
Where no end group is shown, it is not given here. [ ]: non-standard residue; d: D form. sY = N[C@@H](Cc1ccc(OS(=O)(=O)O)cc1)C(=O)O

Columns and labels:
[1] = molecular target: BNGR-A9; experiment: CRE-driven luciferase reporter assay, BNGR-A9; type: cell-based, Bombyx mori; conditions: 4 h, at least three independent experiments; for EC50: dose-response
Source text: (§1) The entire coding region of BNGR-A9 (NM_001134272.1) was obtained by PCR and subsequently cloned into pEGFP-N1 and pCMV-Flag vectors using the primers listed in Table S1. The Flag-BNGR-A9 construct was generated for functional assays, including CRE-luciferase, calcium mobilization, and ERK phosphorylation assays, while BNGR-A9-EGFP was created for receptor visualization purposes. Additionally, for expression in the BmN cell system, the BNGR-A9 gene was inserted into the pIZT/V5-His vector. All constructs were validated by DNA sequencing.
(§2) HEK293 cells were cultured with Dulbecco’s Modified Eagle’s Medium (Gibco, NY, USA) supplied with 10% Fetal bovine serum (Gibco, NY, USA) in a 37 °C humidified incubator containing 5% CO2. BmN cells were maintained in TC 100 insect medium (AppliChem, Darmstadt, Germany) supplied with 10% Fetal bovine serum in a 28 °C incubator. Both HEK293 and BmN cells were transfected with X-tremeGENE (Roche, Mannheim, Germany) according to the manufacturer’s instruction.
HEK293 and BmN cells were transfected with the different Bombyx receptors (Flag-BNGR-A9, -A24, -A32, or A33 for HEK293 cells, and pIZT-BNGR-A9, -A24, -A32, or A33 for BmN cells) along with the corresponding CRE-reporter plasmid. When cell confluence reached 90–95%, they were treated with various concentrations of Bombyx mori neuropeptides, with or without forskolin. Following a 4-h incubation period, cells were lysed, and luciferase activities were determined using a firefly luciferase kit (Beyotime, Shanghai, China).
(§3) Data analysis was conducted using GraphPad Prism (San Diego, CA), with results presented as mean ± SEM. Statistical significance was assessed through Student’s t-test or two-way ANOVA with multiple comparisons, with p values below 0.05 denoted as significant (*p < 0.05, **p < 0.01, ***p < 0.001). Dose–response curves were generated via non-linear curve fitting. Adobe Photoshop was used to process images, ensuring uniform brightness and contrast settings across all conditions. All images and data provided represent findings from a minimum of three independent experiments.

[2] = system: BNGR-A9; experiment: Fura-2 AM-based Ca^2+ mobilization assay, BNGR-A9; type: cell-based, Bombyx mori
Source text: as §1, §2
To monitor the changes of intracellular calcium, Fura-2 AM (Dojindo, Kumamoto, Japan) was utilized as the calcium indicator, following the methodology outlined in a previous study. Briefly, HEK293 cells stably expressing Flag-BNGR-A9 were exposed to various concentrations of Bombyx mori neuropeptides and measured using a fluorescence spectrometer (Tecan Infinite 200 PRO). Calcium levels were determined by the ratio of fluorescence excitation at 340 nm to that at 380 nm. If necessary, cells were pre-treated with U73122, FR900359, or KT5720 for 30 min prior to the initiation of the experiment. For assays involving BmN cells expressing pIZT-BNGR-A9, the procedures were conducted at 28 °C, and HBSS was replaced with HBM (Hepes-Buffered Medium: 140 mM NaCl, 5 mM KCl, 1 mM MgCl2, 1.2 mM Na2HPO4, 5 mM NaHCO3, 10 mM glucose, and 20 mM HEPES–NaOH, CaCl2 (1 mM), pH 6.2).
as §3

[3] = system: BNGR-A9; experiment: IP3 ELISA in BNGR-A9-expressing HEK293 cells; type: cell-based, Bombyx mori; conditions: 1 μM, 1 h
Description: Figure 6 Bombyx sulfated-sulfakinin mediated activation of BNGR-A9 via Gαq signaling pathway. (A and B) Effects of Gαq inhibitor FR900359 (1 μM) on the CRE-driven luciferase activities in BNGR-A9 expressing HEK293 (A) and BmN (B) cells. BNGR-A9 stable transfected cells were pretreated with FR900359 (1 μM) for 30 min and challenged with 100 nM BmsSK for 4 h. (C) Accumulation of IP3 in HEK293 cells expressing BNGR-A9 in response to Bombyx neuropeptides was assessed. Cells were pre-treated with serum-free DMEM for 1 h, followed by stimulation with 1 μM of the indicated Bombyx neuropeptides for 1 h. The level of IP3 in the supernatant was then determined using the IP3 immunoassay detection kit. (D, E) Effects of Gαq/PLC inhibitors on Flag-BNGR-A9 mediated increase of intracellular Ca^2+ level. Flag-BNGR-A9 expressing HEK293 (D) and BmN (E) cells were pretreated with Gαq inhibitorFR900359 (1 μM), U73122 (5 μM) for 30 min, and incubated with Fura-2 AM for 30 min, followed by challenging with 100 nM BmsSK. (F, G) effects of protein kinase A (PKA) inhibitor KT5720 on BmsSK initiated Ca^2+ in Flag-BNGR-A9-expressing cells. […] After 30 min incubation with Fura-2 AM, the cells were treated with 100 nM BmsSK, and detected with a fluorescence spectrometer. […] Data were analyzed by using a Student’s t-test (*p < 0.05; **p < 0.01). […]

[4] = Hemolymph trehalose determination; type: in vivo, Bombyx mori
Description: Silkworm larvae were anesthetized by cooling on ice, after which hemolymph was collected using a micropipette from an incision made at the abdominal leg. Approximately 5 mg of phenylthiourea (to achieve a final concentration of 2.5% w/v) was added to the hemolymph in a 1.5 ml Eppendorf tube to inhibit clotting. Hemolymph samples from 10 insects were then centrifuged at 12,000 rpm for 10 min at 4 °C to sediment any particulates. For trehalose measurement, the hemolymph underwent pretreatment with trehalase (Megazyme, Chicago, US), following the manufacturer’s protocol. Subsequently, the sugar concentration in the hemolymph was assessed using a glucose oxidase–peroxidase kit (Shanghai Rongsheng Biotech, China).

BmsSK: Bombyx mori sulfated-sulfakinin, synthetic; sulfated version of GDDTFDD^8YGHLRF-NH2 (GDDTFDD[sY]GHLRF-NH2; N-terminus assumed; SMILES CC(C)C[C@H](NC(=O)[C@H](Cc1c[nH]cn1)NC(=O)CNC(=O)[C@H](Cc1ccc(OS(=O)(=O)O)cc1)NC(=O)[C@H](CC(=O)O)NC(=O)[C@H](CC(=O)O)NC(=O)[C@H](Cc1ccccc1)NC(=O)[C@@H](NC(=O)[C@H](CC(=O)O)NC(=O)[C@H](CC(=O)O)NC(=O)CN)[C@@H](C)O)C(=O)N[C@@H](CCCNC(=N)N)C(=O)N[C@@H](Cc1ccccc1)C(N)=O)
EC50 ([1]; BmN cells stably expressing BNGR-A9): 0.06 µM
Activation of BNGR-A9 (CRE-driven luciferase activity) ([1]; HEK293 and BmN cells, 1 μM peptide, with or without forskolin (5 μM)): could activate BNGR-A9
EC50 ([1]; HEK293 cells stably expressing BNGR-A9): 0.0733 µM
Ca^2+ response ([2]; 1 μM peptide, Fura-2 AM, BNGR-A9-expressing HEK293 and BmN cells, three independent experiments): triggered responses in BNGR-A9-expressing cells
Ca^2+ response compared to BmnsSK ([2]; BNGR-A9-expressing HEK293 and BmN cells, Fura-2 AM): significantly greater Ca^2+ response
EC50 ([2]; BmN cells expressing BNGR-A9, Fura-2 AM, 28 °C, HBM pH 6.2, three independent experiments): 0.0514 µM
EC50 ([2]; HEK293 cells expressing BNGR-A9, Fura-2 AM, three independent experiments): 0.029 µM
Intracellular IP3 level [3]: significant elevation
Hemolymph trehalose level ([4]; BmsSK final 10 nM, 24 h after EGFP dsRNA injection, hemolymph collected 24 h later): significant increase in trehalose levels
Hemolymph trehalose level ([4]; following BmsSK injection (restated in discussion)): significant rise in circulating hemolymph trehalose
